Experimental data as given in PMC9865188 (Pharmaceutics, 2023).
Read-outs that look alike come from different tables or passages of the source.

Assays:
[1] = Nonspecific zosuquidar adsorption to glass HPLC vials; type: physicochemical; settings: for nonspecific zosuquidar adsorption: 25% methanol in HEPES HBSS pH 7.4; for zosuquidar concentration found (theoretical 250 nM): HEPES HBSS pH 7.4 in glass vial
Procedure: Generally, when zosuquidar was diluted in aqueous solutions, less zosuquidar than expected was present according to HPLC-FL quantitation, when compared to the corresponding dilutions in water–organic solvent mixtures. […] These were further diluted in methanol or DMSO to 100 µM. For adsorption experiments, solutions of 0.5–49.5% v/v methanol or DMSO in HEPES HBSS pH 7.4 were prepared, along with HEPES HBSS pH 7.4 supplemented with 0.10, 1.0, 2.5, 5.0, 10, or 50 µM polysorbate 20 or 0.05% bovine serum albumin, as well as 10 mM MES HBSS pH 6.5, 10 mM ammonium acetate pH 4.5, 19 mM maleic acid buffer pH 6.5, and FaSSIF-V2. […] The vials were capped and vortexed for 1 min and equilibrated at ambient temperature for approximately 24 h before HPLC-FL analysis. The peak area of the samples was normalised to the peak area of control samples, which were considered to elicit 0% adsorption. […] Both vials were equilibrated at room temperature for at least 24 h. […] The solutions in both vials were then analysed directly by HPLC-FL.

[2] = Pharmacokinetic study in Sprague Dawley rats (oral gavage); type: in vivo; settings: for AUC(0-t) / Cmax / bioavailability / half-life: male, Sprague-Dawley, rat, plasma, po; for AUC(0-t): Zosuquidar AUC0–6h; for Cmax: Zosuquidar Cmax; for bioavailability: Zosuquidar bioavailability; for half-life: Zosuquidar t½
Procedure: The study was conducted according to the European Convention for the Protection of Vertebrate Animals used for Experimental and other Scientific Purposes (ETS no. 123) and Belgian law controlling the experiments on animals (Royal Decree of 29 May 2013 for the protection of laboratory animals). Animals were allowed minimum five days to acclimatise upon arrival from the supplier, and they were housed in polysulphone cages (58 × 52 × 20 cm) in groups of six provided with wooden sticks for enrichment. Animals had free access to Safe 04 Maintenance Diet (Safe, Rosenberg, Germany) and water during acclimatisation and during the study.
Male Sprague Dawley rats (Charles River, Dortmund, Germany) weighing 293–358 g were randomly assigned into six groups of six animals. Formulations were prepared as clear solutions in 40% v/v ethanol–water and 10 mL/kg was administered to each animal by oral gavage. […] Plasma samples were taken by tail vein puncture with a needle followed by collection in 32–64 µL micro haematocrit tubes (Vitrex Medical, Herlev, Denmark) at times 15, 30, and 45 min and 1, 2, 3, 4, and 6 h. Samples were centrifuged, and plasma was transferred into 10 µL end-to-end pipettes (Vitrex Medical, Herlev, Denmark) and immediately frozen at −80 °C until bioanalysis. Immediately after the study, animals were euthanised according to the principles of euthanasia stated in the AVMA Guidelines for the Euthanasia of Animals (American Veterinary Medical Association, 2020). Plasma samples were analysed by a previously described qualified LC-MS/MS method.
Pharmacokinetic parameters were calculated individually for each animal subject and pooled for statistical analysis. The plasma concentration at 15 min (C15min) was reported as an average of the plasma concentration of the six animals in each group. […] Elimination rate constants (ke) were calculated by linear regression of the linear part of the ln(plasma concentration) versus time profiles, and plasma half-life (t½) was calculated from ke:(3) t½=ln (2)/ke

[3] = HEPES HBSS pH 7.4 + 5 or 10 µM polysorbate 20, 1% methanol, or 1% DMSO
[4] = cited from earlier work
[5] = biological target: P-gp (Homo sapiens, UniProt P08183); test: Calcein-AM assay in MDCKII-MDR1 cells; type: cell-based; design: Piet Borst (Netherlands Cancer Institute); host or cells: MDCKII
Procedure: Before the experiment, growth medium was removed by vacuum suction (Vacusip, Integra Biosciences, NH, USA), 100 µL HEPES HBSS pH 7.4 was added to each well with a multichannel pipette, and the cells were incubated on a Talboys 1000 MP incubating microplate shaker (Troemner, NJ, USA, 220 rpm, 37 °C).
A total of 170 µL of the test solutions could then be transferred from the 96-well plate to the cell-containing plate at the start of preincubation. […] Wells containing HEPES HBSS pH 7.4 only served as a positive control. The cells were preincubated with test solutions (serial and spike) for 10 min on a microplate shaker (37 °C, 220 rpm). To start the experiment, 30 µL 33.3 µM calcein-AM in HEPES HBSS pH 7.4 was added to each well with a multichannel pipette, and the plate was stirred for 1 min on a microplate shaker (37 °C, 220 rpm) before being transferred to a Fluostar Omega plate reader.
One column of wells was kept without cells to measure background fluorescence signals from the applied buffers and compounds.

[6] = 2 mg/kg, group D: zosuquidar 2.0 mg/kg + etoposide 20 mg/kg + 5.0% v/v polysorbate 20 oral
[7] = 6.3 mg/kg, group E: zosuquidar 6.3 mg/kg + etoposide 20 mg/kg + 5.0% v/v polysorbate 20 oral
[8] = 6.3 mg/kg, group F: zosuquidar 6.3 mg/kg + etoposide 20 mg/kg + 10% v/v polysorbate 20 oral
[9] = group G*: zosuquidar 2.0 mg/kg + etoposide 20 mg/kg oral
[10] = group H*: zosuquidar 6.3 mg/kg + etoposide 20 mg/kg oral

Chain of P-gp (P08183 whole entry): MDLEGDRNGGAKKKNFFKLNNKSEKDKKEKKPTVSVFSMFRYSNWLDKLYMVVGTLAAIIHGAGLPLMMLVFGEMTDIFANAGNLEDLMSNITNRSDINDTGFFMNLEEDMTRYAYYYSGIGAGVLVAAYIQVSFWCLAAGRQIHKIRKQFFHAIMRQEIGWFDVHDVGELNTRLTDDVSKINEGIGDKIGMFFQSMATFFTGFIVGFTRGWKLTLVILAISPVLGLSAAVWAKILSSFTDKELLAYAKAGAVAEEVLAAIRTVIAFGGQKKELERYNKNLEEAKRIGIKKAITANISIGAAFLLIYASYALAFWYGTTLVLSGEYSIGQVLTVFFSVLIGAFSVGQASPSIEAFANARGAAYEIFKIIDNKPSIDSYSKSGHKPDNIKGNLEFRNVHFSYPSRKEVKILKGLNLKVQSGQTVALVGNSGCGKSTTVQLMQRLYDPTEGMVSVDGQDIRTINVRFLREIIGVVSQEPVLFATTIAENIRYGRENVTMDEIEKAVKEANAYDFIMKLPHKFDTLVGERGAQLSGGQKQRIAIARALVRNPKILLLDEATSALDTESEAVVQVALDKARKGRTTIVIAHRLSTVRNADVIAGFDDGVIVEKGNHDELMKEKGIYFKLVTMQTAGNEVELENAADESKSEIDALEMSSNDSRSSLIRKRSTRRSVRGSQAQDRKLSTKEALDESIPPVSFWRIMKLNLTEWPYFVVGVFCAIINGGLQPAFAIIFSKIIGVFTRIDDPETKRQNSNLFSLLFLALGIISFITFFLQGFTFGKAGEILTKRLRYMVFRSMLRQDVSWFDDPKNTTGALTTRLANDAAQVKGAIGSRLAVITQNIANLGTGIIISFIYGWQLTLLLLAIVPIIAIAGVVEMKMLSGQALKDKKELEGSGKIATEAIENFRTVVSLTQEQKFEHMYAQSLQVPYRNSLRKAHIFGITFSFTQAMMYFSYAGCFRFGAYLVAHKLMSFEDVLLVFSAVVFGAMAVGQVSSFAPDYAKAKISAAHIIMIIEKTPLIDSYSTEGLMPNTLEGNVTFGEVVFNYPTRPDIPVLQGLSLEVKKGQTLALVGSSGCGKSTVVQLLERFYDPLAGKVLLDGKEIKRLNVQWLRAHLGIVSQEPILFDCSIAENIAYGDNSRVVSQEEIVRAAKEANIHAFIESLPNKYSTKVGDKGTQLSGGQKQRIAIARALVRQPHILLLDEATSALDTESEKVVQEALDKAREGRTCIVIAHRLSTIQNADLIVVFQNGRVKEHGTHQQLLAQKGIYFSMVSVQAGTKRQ

- nonspecific zosuquidar adsorption ([1]; 500 nM zosuquidar): 2.19 ± 6.71%
- zosuquidar adsorption ([1]; 500 nM zosuquidar, 50% DMSO in HEPES HBSS pH 7.4): −5.9 ± 1.1%
- zosuquidar adsorption ([1]; 500 nM zosuquidar, FaSSIF-V2 pH 6.5): 13.6 ± 1.0%
- zosuquidar adsorption ([1]; 500 nM zosuquidar, HEPES HBSS pH 7.4 + 0.5% methanol): 97.0 ± 0.6%
- nonspecific zosuquidar adsorption ([1]; 0.75 µM zosuquidar): 6.83 ± 2.33%
- nonspecific zosuquidar adsorption ([1]; 2.5 µM zosuquidar): 2.76 ± 0.22%
- nonspecific zosuquidar adsorption ([1]; 7.5 µM zosuquidar): −0.10 ± 2.02%
- nonspecific zosuquidar adsorption ([1]; 25 µM zosuquidar): 32.5 ± 0.7%
- zosuquidar concentration found (theoretical 250 nM) ([1]; after transfer to a new vial): 38.1 ± 13.7 nM
- zosuquidar concentration found (theoretical 250 nM) ([1]; without transfer): 282 ± 8 nM
- Zosuquidar AUC0–6h ([2]; group B: zosuquidar 0.63 mg/kg + etoposide 20 mg/kg + 1.0% v/v polysorbate 20 oral): BLQ
- Zosuquidar tmax, median [Q1; Q3] ([2]; group E: zosuquidar 6.3 mg/kg + etoposide 20 mg/kg + 5.0% v/v polysorbate 20 oral): 60 [56;120] min
- AUC(0-t) [2, 6]: 18.9 ± 2.8 ng·h/mL
- Cmax [2, 6]: 4.8 ± 0.5 ng/mL
- bioavailability [2, 6]: 5.64 ± 0.83%
- half-life [2, 6]: 180 ± 23 min
- AUC(0-t) [2, 7]: 47 ± 3.7 ng·h/mL
- AUC(0-t) [2, 8]: 56.8 ± 4.2 ng·h/mL
- Cmax [2, 7]: 13.2 ± 1 ng/mL
- Cmax [2, 8]: 16.6 ± 1.1 ng/mL
- bioavailability [2, 7]: 4.45 ± 0.35%
- bioavailability [2, 8]: 5.38 ± 0.4%
- half-life [2, 7]: 152 ± 20 min
- half-life [2, 8]: 147 ± 10 min
- effect on solubility [3]: did not significantly affect
- mean P-gp activity ([5]; […] zosuquidar + 2.5 µM polysorbate 20, spike method): 61%
- mean P-gp activity ([5]; […] zosuquidar + 5 µM polysorbate 20, spike method): 46%
- discrepancy of IC50, serial dilution vs spike method ([5]; calcein-AM, zosuquidar alone): 60 fold
Structure (SMILES): O[C@@H](COc1cccc2ncccc12)CN1CCN([C@@H]2c3ccccc3[C@@H]3[C@H](c4ccccc42)C3(F)F)CC1 [zosuquidar]
- Zosuquidar AUC0–6h ([4]; group F*: zosuquidar 0.63 mg/kg + etoposide 20 mg/kg oral): BLQ
- Zosuquidar AUC0–6h [4, 9]: 8.67 ± 0.77 ng·h/mL
- Zosuquidar Cmax [4, 9]: 2.10 ± 0.27 ng/mL
- Zosuquidar bioavailability [4, 9]: 2.58 ± 0.23%
- Zosuquidar tmax, median [Q1; Q3] [4, 9]: 120 [45;135] min
- Zosuquidar t½ [4, 9]: 217 ± 27 min
- Zosuquidar AUC0–6h [4, 10]: 43.6 ± 5.4 ng·h/mL
- Zosuquidar Cmax [4, 10]: 10.9 ± 1.2 ng/mL
- Zosuquidar bioavailability [4, 10]: 4.12 ± 0.51%
- Zosuquidar tmax, median [Q1; Q3] [4, 10]: 90 [45;120] min
- Zosuquidar t½ [4, 10]: 161 ± 13 min
